Experimental data published in patent US7576094B2, “Spiro derivatives as lipoxygenase inhibitors” (Eli Lilly and Company, priority 2004, dated 2009).

Tested on: dopaminergic neuronal cell line
Test: High Glutamate-Induced Oxidative Stress Assay (HGOS)
Format: cell-based
Settings: Mus musculus; 30 mM glutamate, 16 h, Cell Tracker Green; read-out: protection against HGOS cell injury and cell death with an EC50
From the text: Protection against redox stress can be evaluated in cell culture using high glutamate induced oxidative stress (HGOS) in mouse dopaminergic cell lines. The cytotoxic effect of glutamate is not due to excitotoxicity, as this cell line is devoid of inotropic glutamate receptors. Rather, the glutamate-induced toxicity of dopaminergic cells is associated with an inhibition of cystne transport which subsequently leads to depletion of intracellular glutathione (GSH) levels (Murphy T. H., et al. Neuron, Vol. 2 (1989), pp. 1547-1558), activation of neuronal 12-Lipoxygenase (Li, Y. et al. Neuron, Vol. 19 (1997), pp. 453-463), increased ROS production (Tan S. et al. J. Cell Biol., Vol. 141 (1998), pp. 1423-1432) and elevated intracellular Ca^2+ (Li, Y. et al. see supra). Some molecules were measured for their ability to protect cells against glutamate-induced stress and the assay is detailed in Examples.
This procedure was used to induce high glutamate-induced oxidative stress (HGOS) in a dopaminergic neuronal cell line. Using this assay the potency and efficacy of test articles against HGOS neuronal cell injury and cell death was established in a high throughput manner.
• Dopaminergic neuronal cell lines • DMEM-No Glucose (Life Technologies Cat # 11966-025) • L-glutamine (Life Technologies Cat # 25030-081) • L-glutamic acid, monosodium salt (Sigma Cat # G5889) • D-glucose (Sigma Cat # G-6151) • 10×HBSS buffer(pH 7.4) (950 mL Pyrogen-free water, 2.44 g/L MgCl2.6H20, 3.73 g/L KCl, 59.58 g/L Hepes, 58.44 g/L NaCI, 1.36 g/L KH2PO4, 1.91 g/L CaCl2.2H2O and pH to […] with HCl) • Cell Tracker Green fluorescent dye (Molecular Probes, Cat # 2925). Prepare a 5 μM solution in pre-warmed HBSS just prior to use. • Sterile 96-well plates pre-coated with poly-D-lysine (Corning Catalog # 3665) • 96-well deep well mother plate, DyNA Block 1000 (VWR Catalog # 40002-008) Neuronal Cells
The cells were seeded into 96-well plates at a density of 2000 per well and left to grow for 72 hours in a 33° C. incubator with 5% CO2 in air atmosphere. […]

Cc1c(C)c2c(c(C)c1O)CCC1(CC1)O2 [5,7,8-trimethyl-3,4-dihydrospiro[chromene-2,1′-cyclopropan]-6-ol]
EC50: < 1000 nM

Cc1c(C)c2c(c(Cl)c1O)CCC1(CCC1)O2 [5-chloro-7,8-dimethyl-3,4-dihydrospiro[chromene-2,1′-cyclobutan]-6-ol]
EC50: < 1000 nM

Cc1c(C)c2c(c(C)c1O)C1(CCC1)CCS2 [5′,7′,8′-trimethyl-2′,3′-dihydrospiro[cyclobutane, 1,4′-thiochromen]-6′-ol]
EC50: < 1000 nM
